Consider 27 compounds from patent US10160762B2, “6-alkyl dihydropyrazolopyrimidinone compounds as PDE2 inhibitors” (Merck Sharp & Dohme Corp., priority 2015, dated 2018).

The target of this assay is T1, Rhesus PDE2A3 (Macaca mulatta, UniProt B3VTJ2).
T1 construct: made in house; host or cells: AD293 cells, transient transfection; supernatant of sonicated lysate
T1 sequence (B3VTJ2 1-941): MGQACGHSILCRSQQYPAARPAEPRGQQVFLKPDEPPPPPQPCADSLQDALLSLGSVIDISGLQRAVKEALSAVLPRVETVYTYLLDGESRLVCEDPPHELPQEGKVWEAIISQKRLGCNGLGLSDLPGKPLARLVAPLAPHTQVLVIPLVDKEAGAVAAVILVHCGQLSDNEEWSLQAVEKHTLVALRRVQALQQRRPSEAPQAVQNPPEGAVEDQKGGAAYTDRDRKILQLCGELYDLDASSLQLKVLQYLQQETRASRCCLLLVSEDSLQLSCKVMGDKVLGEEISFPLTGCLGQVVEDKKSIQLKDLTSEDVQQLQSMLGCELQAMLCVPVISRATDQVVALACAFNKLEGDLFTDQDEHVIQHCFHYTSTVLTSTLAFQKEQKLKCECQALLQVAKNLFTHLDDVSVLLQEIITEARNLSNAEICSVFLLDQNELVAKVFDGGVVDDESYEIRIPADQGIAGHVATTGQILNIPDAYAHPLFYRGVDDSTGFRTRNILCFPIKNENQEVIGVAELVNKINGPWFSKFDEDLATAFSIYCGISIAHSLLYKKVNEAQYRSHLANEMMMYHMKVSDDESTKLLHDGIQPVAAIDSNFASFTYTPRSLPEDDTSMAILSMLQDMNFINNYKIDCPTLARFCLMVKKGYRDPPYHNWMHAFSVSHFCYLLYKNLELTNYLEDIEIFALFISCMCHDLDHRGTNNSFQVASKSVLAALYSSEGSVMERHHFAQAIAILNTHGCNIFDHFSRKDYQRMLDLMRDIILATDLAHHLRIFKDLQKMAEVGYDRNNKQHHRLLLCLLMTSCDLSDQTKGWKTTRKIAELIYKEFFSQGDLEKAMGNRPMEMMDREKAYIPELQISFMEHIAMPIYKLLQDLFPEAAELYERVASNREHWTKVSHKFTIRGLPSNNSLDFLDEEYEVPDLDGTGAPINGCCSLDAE
As to the kind of experiment: PDE2 fluorescence polarization (IMAP FP) inhibition assay, rhesus PDE2A3. Format: biochemical, rhesus macaque. To be noted: Lab B; read-out: Rhesus PDE2 Ki (nM) Lab B. A digest of the protocol: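 Enzyme source was the lysate supernatant of AD293 cells transiently expressing rhesus PDE2A3, diluted to give 20% conversion of 50 nM FAM-cAMP, with 1 µM cGMP as activator. Buffer was 10 mM Tris pH 7.2, 10 mM MgCl2, 1 mM DTT.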
In general terms: Polarisation of emitted light reports the rotation of a fluorescent probe.

Take `Cc1nc2c(c(CO)nn2C(c2ccc(C(F)(F)F)cc2)C(C)(C)C)c(=O)[nH]1` (single isomer, unassigned) [Example 83, (S)- or (R)-1-(2,2-Dimethyl-1-(4-(trifluoromethyl)phenyl)-propyl)-3-(hydroxymethyl)-6-methyl-1H-pyrazolo[3,4-d]pyrimidin-4(5H)-one]: the Ki (as a rule, the dissociation constant of the complex between target and ligand, obtained from inhibition or displacement) came out at 9.4 nM.

In the case of `Cc1nc2c(c(CO)nn2C(c2ccc(C(F)(F)F)c(F)c2)C2CC2)c(=O)[nH]1` (single isomer, unassigned) [Example 91, (S)- or (R)-1-(Cyclopropyl(3-fluoro-4-(trifluoromethyl)phenyl)methyl)-3-(hydroxymethyl)-6-methyl-1H-pyrazolo[3,4-d]pyrimidin-4(5H)-one], the Ki was found to be 1 nM. The value for `Cc1nc2c(c(CF)nn2C(c2ccc(OC(F)(F)F)c(F)c2)C2CC2)c(=O)[nH]1` (single isomer, unassigned) [Example 228, (R)- or (S)-1-(Cyclopropyl(3-fluoro-4-(trifluoromethoxy)phenyl)methyl)-3-(fluoromethyl)-6-methyl-1,5-dihydro-4H-pyrazolo[3,4-d]pyrimidin-4-one] was 0.5 nM; that for `Cc1nc2c(c(CO)nn2C(c2ccc(OC(F)(F)F)c(F)c2)C2CC2)c(=O)[nH]1` (single isomer, unassigned) [Example 93, (S)- or (R)-1-(Cyclopropyl(3-fluoro-4-(trifluoromethoxy)phenyl)methyl)-3-(hydroxymethyl)-6-methyl-1H-pyrazolo[3,4-d]pyrimidin-4(5H)-one] was 1.9 nM. For the compound `Cc1nc2c(c(CO)nn2C(c2ccc(OC(F)(F)F)cc2)C(C)C)c(=O)[nH]1` (single isomer, unassigned) [Example 85, (S)- or (R)-3-(Hydroxymethyl)-6-methyl-1-(2-methyl-1-(4-(trifluoromethoxy)phenyl)propyl)-1H-pyrazolo[3,4-d]pyrimidin-4(5H)-one], the Ki amounted to 0.91 nM.

As for `Cc1nc2c(c(CC(F)F)nn2C(C)c2ccc(C(F)(F)F)cc2)c(=O)[nH]1` (single isomer, unassigned) [Example 286], the Ki was 3.7 nM. The value for `Cc1nc2c(c(CO)nn2C(c2ccc(C(F)(F)F)c(F)c2)C(C)C)c(=O)[nH]1` (single isomer, unassigned) [Example 87, (S)- or (R)-1-(1-(3-Fluoro-4-(trifluoromethyl)phenyl)-2-methylpropyl)-3-(hydroxymethyl)-6-methyl-1H-pyrazolo[3,4-d]pyrimidin-4(5H)-one] was 3.2 nM; that for `Cc1nc2c(c(CO)nn2C2(c3ccc(C(F)(F)F)cc3)CCC2)c(=O)[nH]1` [Example 78, 3-(Hydroxymethyl)-6-methyl-1-(1-(4-(trifluoromethyl)phenyl)cyclobutyl)-1H-pyrazolo[3,4-d]pyrimidin-4(5H)-one] was 6.7 nM. Consider `COCc1nn(C(C)c2ccc(C(F)(F)F)cc2)c2nc(C)[nH]c(=O)c12` (single isomer, unassigned) [Example 279], for which the Ki was 24 nM. Then `Cc1nc2c(c(CF)nn2C(c2ccc(C(F)(F)F)c(F)c2)C2CC2)c(=O)[nH]1` (single isomer, unassigned) [Example 226, (R)- or (S)-1-(Cyclopropyl(3-fluoro-4-(trifluoromethyl)phenyl)methyl)-3-(fluoromethyl)-6-methyl-1,5-dihydro-4H-pyrazolo[3,4-d]pyrimidin-4-one], with 0.33 nM.

Consider `Cc1nc2c(c(CO)nn2C(C)c2ccc(C(F)(F)F)cc2Cl)c(=O)[nH]1` (single isomer, unassigned) [Example 19, (S)- or (R)-1-(1-(2-Chloro-4-(trifluoromethyl)phenyl)ethyl)-3-(hydroxymethyl)-6-methyl-1H-pyrazolo[3,4-d]pyrimidin-4(5H)-one], for which the Ki amounted to 1.9 nM. `Cc1nc2c(c(CC(F)F)nn2C(C)c2ccc(C(F)(F)F)cc2)c(=O)[nH]1` (single isomer, unassigned) [Example 285]: the Ki was 179 nM. As to `Cc1nc2c(c(CO)nn2C(C)c2ccc(C(F)(F)F)cc2F)c(=O)[nH]1` (single isomer, unassigned) [Example 17, (S)- or (R)-1-(1-(2-Fluoro-4-(trifluoromethyl)phenyl)ethyl)-3-(hydroxymethyl)-6-methyl-1H-pyrazolo[3,4-d]pyrimidin-4(5H)-one], the Ki came to 1.7 nM. The value for `Cc1nc2c(c(CO)nn2C(C)c2ccc(S(F)(F)(F)(F)F)cc2)c(=O)[nH]1` (single isomer, unassigned) [Example 77] was 4.2 nM; that for `Cc1nc2c(c(/C=N\O)nn2C(C)c2ccc(C(F)(F)F)cc2)c(=O)[nH]1` (stereo not drawn) [Example 251, (Z)-6-Methyl-4-oxo-1-(1-(4-(trifluoromethyl)phenyl)ethyl)-4,5-dihydro-1H-pyrazolo[3,4-d]pyrimidine-3-carbaldehyde oxime] was 8.9 nM; that for `COc1cccc(Cc2nc3c(c(CF)nn3C(C)c3ccc(C(F)(F)F)cc3)c(=O)[nH]2)c1` (single isomer, unassigned) [Example 221, (S)- or (R)-3-(Fluoromethyl)-6-(3-methoxybenzyl)-1-(1-(4-(trifluoromethyl)phenyl)ethyl)-1H-pyrazolo[3,4-d]pyrimidin-4(5H)-one] was 1.9 nM.

On to `Cc1nc2c(c(CC#N)nn2C(C)c2ccc(C(F)(F)F)cc2)c(=O)[nH]1` (single isomer, unassigned) [Example 281], for which the Ki came out at 1.9 nM. Then `Cc1nc2c(c(CC(F)(F)F)nn2C(c2ccc(C(F)(F)F)cc2)C2(C)CC2)c(=O)[nH]1` (single isomer, unassigned) [Example 59, (S)- or (R)-6-Methyl-1-((1-methylcyclopropyl)(4-(trifluoromethyl)phenyl)methyl)-3-(2,2,2-trifluoroethyl)-1H-pyrazolo[3,4-d]pyrimidin-4(5H)-one], with 22 nM; and `Cc1nc2c(c(CO)nn2C(c2ccc(C(C)(C)C)cc2)C2CC2)c(=O)[nH]1` (single isomer, unassigned) [Example 88, (R)- or (S)-1-((4-tert-Butylphenyl)(cyclopropyl)methyl)-3-(hydroxymethyl)-6-methyl-1H-pyrazolo[3,4-d]pyrimidin-4(5H)-one], with 51 nM; and `Cc1nc2c(c(CCO)nn2C(C)c2ccc(C(F)(F)F)cc2)c(=O)[nH]1` (single isomer, unassigned) [Example 250], with 2 nM.

`Cc1nc2c(c(CC(F)(F)F)nn2C(c2ccc(C(F)(F)F)cc2)C(C)(C)C)c(=O)[nH]1` (single isomer, unassigned) [Example 57, (S)- or (R)-1-(2,2-Dimethyl-1-(4-(trifluoromethyl)phenyl)propyl)-6-methyl-3-(2,2,2-trifluoroethyl)-1H-pyrazolo[3,4-d]pyrimidin-4(5H)-one]: the Ki amounted to 69 nM. Then `Cc1nc2c(c(C=O)nn2C(C)c2ccc(C(F)(F)F)cc2)c(=O)[nH]1` (stereo not drawn) [Example 248, 6-Methyl-4-oxo-1-(1-(4-(trifluoromethyl)phenyl)ethyl)-4,5-dihydro-1H-pyrazolo[3,4-d]pyrimidine-3-carbaldehyde], with 53 nM; and `Cc1nc2c(c(CO)nn2C(c2ccc(C(F)(F)F)c(F)c2)C2CC2)c(=O)[nH]1` (single isomer, unassigned) [Example 90, (R)- or (S)-1-(Cyclopropyl(3-fluoro-4-(trifluoromethyl)phenyl)methyl)-3-(hydroxymethyl)-6-methyl-1H-pyrazolo[3,4-d]pyrimidin-4(5H)-one], with 90 nM; and `COc1ccc(Cc2nc3c(c(CF)nn3C(C)c3ccc(C(F)(F)F)cc3)c(=O)[nH]2)cc1` (single isomer, unassigned) [Example 219, (S)- or (R)-3-(Fluoromethyl)-6-(4-methoxybenzyl)-1-(1-(4-(trifluoromethyl)phenyl)ethyl)-1H-pyrazolo[3,4-d]pyrimidin-4(5H)-one], with 0.87 nM.

For the compound `Cc1nc2c(c(C(F)(F)CO)nn2C(C)c2ccc(C(F)(F)F)cc2)c(=O)[nH]1` (single isomer, unassigned) [Example 255], the Ki turned out to be 1.5 nM.

Consider `Cc1nc2c(c(C#N)nn2C(C)c2ccc(C(F)(F)F)cc2)c(=O)[nH]1` (single isomer, unassigned) [Example 252], for which the Ki turned out to be 20 nM. Then `Cc1nc2c(c(CO)nn2C(c2ccc(C(F)(F)F)cc2)C2(C)CC2)c(=O)[nH]1` (single isomer, unassigned) [Example 24, (R)- or (S)-3-(Hydroxymethyl)-6-methyl-1-((1-methylcyclopropyl)(4-(trifluoromethyl)phenyl)methyl)-1H-pyrazolo[3,4-d]pyrimidin-4(5H)-one], with 1.9 nM.
